Values quoted from earlier work as cited in patent publication US7273870B2, “Stabilized difloxacin injectable solution” (Wyeth, priority 2002, dated 2007).

Which Solubility in water does the source give for `CN1CCN(c2cc3c(cc2F)c(=O)c(C(=O)O)cn3-c2ccc(F)cc2)CC1` [Difloxacin, 6-fluoro-1-(4-fluorophenyl)-1,4-dihydro-7-(4-methyl-1-piperadinyl) 4-oxo-3-quinolinecarboxylic acid] here?
Its Solubility in water is “not highly soluble in water”.
